The first test has as its system isolated balisar artery of a rabbit. The test is described as follows: test of contractions of the isolated balisar artery of a rabbit in a hypopotassic medium (contraction induced by KC1). The format is cell-based. Particulars: Oryctolagus cuniculus, read-out: IC50 (concentrations which reduce by 50% the amplitude of the contraction induced by KC1). The method, then:
The protocol of this test is the following. The rabbit is anaesthetized with pentobarbital at a dose of 30 mg/kg then sacrificed by exsanguination and decapitated at the level of the third cervical vertebra. The balisar artery is removed (1.5 cm) between the vertebral arteries and the polygon of Willis. The balisar artery is then cut in a spiral at an angle of 45° . It is fixed by means of a curved needle between an L shaped glass carrier and a displacement sensor (Grass, type FT03). A mechanical tension of 500 mg is applied to the vessel before letting it reach its balance state.
For a period of an hour, the vessel is rinsed every twenty minutes until a stable level is obtained.
The tonic contraction consecutive to depolarization caused by KC1 is dependent on the calcic movements for it is abolished by the suppression of calcium in the survival medium.
Take `COc1cc(F)c(OC)c(OCCN2CCCCC2)c1C(O)CCc1ccc(O)cc1` (stereo not shown) [compound 72]: the IC50 was found to be 3 nM.

The same test, now with this note: Oryctolagus cuniculus; isolated rabbit balisar artery; KC1 at 35 mmoles; read-out: IC50 (concentrations which reduce by 50% the amplitude of the contraction induced by KC1).
With `COc1cc([N+](=O)[O-])c(OC)c(C(O)CCc2ccc(O)cc2)c1OCCN1CCCCC1` (stereo not shown) [compound 74], the IC50 was found to be 1.4 nM.

Take `COc1cc(Cl)c(OC)c(OCCN(C(C)C)C(C)C)c1C(O)CCc1ccc(O)cc1` (stereo not shown) [compound 71]: the IC50 amounted to 9.8 nM.

With `CCN(CC)CCOc1c(OC)c(Cl)cc(OC)c1C(O)CCc1ccc(O)cc1` (stereo not shown) [compound 70], the IC50 amounted to 7.2 nM.

Take `COc1ccc(OC)c(C(O)CCc2ccccc2)c1OCCN1CCCCC1` (stereo not shown) [compound 3]: the IC50 came to 400 nM.

Take `COc1cc(Cl)c(OC)c(OCCN2CCCCC2)c1C(O)CCc1ccc(O)cc1` (stereo not shown) [compound 69]: the IC50 came to 2.3 nM.

Regarding `COc1ccc(OC)c(C(O)CCc2ccc(O)cc2)c1OCCN1CCCCC1` (stereo not shown) [compound 10], the IC50 turned out to be 26 nM.

The values above are taken from patent US5132302A, “Use of aromatic aminoalkoxy derivatives for the treatment of troubles of the cerebrovascular system” (priority 1989, dated 1992).
